According to patent publication US12064516B2, “Pharmaceutical formulations and uses thereof” (Aldeyra Therapeutics, Inc., priority 2020, dated 2024):
Where two headings read alike, the source gives them in different places.

Test: Pharmacokinetics of compound I-1 in the dog by intravenous, oral gavage and oral capsule routes
Type: in vivo, beagle dogs
Settings: for concentration at 0.083 h / concentration at 0.25 h / concentration at 0.5 h / concentration at 1 h / concentration at 2 h / concentration at 4 h / concentration at 8 h / concentration at 12 h / AUC(0-inf) / AUC(0-t) / C0 / clearance / half-life / Vd: male, beagle, dog, plasma; for concentration at 0.083 h / concentration at 0.25 h / concentration at 0.5 h / concentration at 1 h / concentration at 2 h / concentration at 4 h / concentration at 8 h / concentration at 12 h: read-out: Concentration at time point; for Vd: read-out: Vss
Experimental: A pharmacokinetic study was conducted to compare the bioavailability of capsule and suspension oral formulations vs. an intravenous formulations.
The standard curve was prepared from 1 to 2,000 ng/mL. QC samples were prepared at […]. Dilution QCs were prepared at 10-fold dilution. Deuterated (d6) I-1 (compound 1-7) was used as an internal standard. A 50 μL aliquot of sample was added to 150 μL of cold internal standard in acetonitrile to effect protein precipitation. The resulting supernatants were analyzed by LCMS. Diluted sample data was utilized only for over-the-curve results.
Briefly, 9 male non-naïve beagle dogs were assigned in groups of 3 to 3 dose groups. Group 1 was dosed 3 mg/kg by the intravenous route in a vehicle of 20% sulfobutylether-β-cyclodextrin (SBECD). Group 2 was dosed 10 mg/kg by the oral gavage route in a vehicle of 0.5% methylcellulose (MC). Group 3 was dosed with 100 mg capsules.
The I-1 100 mg capsules are manufactured as a non-sterile spray dried, granulated powder blend. The blend is then filled into capsules for oral delivery. The capsules are packaged in high-density polyethylene bottles. The quantitative composition of the I-1 100 mg capsule is presented above in Table B.
Procedure: (PO) gavage: formulations will be administered via a rubber oral gavage tube followed by a 10 mL flush with drinking water. (PO) tablet: tablets will be administered orally by placing the tablet in the back of the throat followed by a 10 mL flush with water.
Frequency: Pre-dose, 5, 15, 30 min, 1, 2, 4, 8, and 12 hrs post-dose (IV); pre-dose, 15, 30 min, 1, 2, 4, 8, and 12 hrs post-dose (PO by gavage and PO by capsule).
Blood collection: each blood sample will be collected from the dog's jugular vein or other accessible vein via direct venepuncture, placed into a pre-labeled tube containing K2EDTA and kept on ice until centrifugation.
Plasma preparation and storage: Certifuged at 4 C at 3,000× for 5 mm. Stored in a freezer until analysed.
Pharmacokinetics package PKSolver2.0™ has been validated against WinNonLin™ as a tool for non-GLP studies and was used to process the pharmacokinetic data.
For each route, the average data were processed with non-compartmental, one compartment, and two compartment models. The models were assessed for goodness of fit and the accuracy of the model to assess the biphasic data, with either a) no weighting, b) 1/concentration observed, or c) 1/concentration observed squared. 1/concentration predicted, and 1/concentration predicted squared weightings were also assessed for best fit. […] The zeros were averaged with the 71.5 value for a resulting average of 23.8. For the In Group 2 (PO Gavage) subject 3 experienced 30 mL of emesis, so the dose assigned to that subject was 7.46. In all cases, the subjects were modelled individually, and the individual PK parameters were averaged to provide final parameters.
For group 1 (intravenous) the final model selected was a two compartment model with 1/concentration observed squared weighting.
For group 2 (oral gavage) the final model was a two compartment extravascular model with 1/concentration predicted squared weighting.
For group 3 (oral capsule) the final model was a one compartment extravascular model with a lag time and no weighting. […] The body weight of each animal was used to assign a mg/kg dose to each individual. Subject 1 was dosed at 7.69 mg/kg. Subject 2 was 6.94 mg/kg, and Subject 3 was 6.99 mg/kg.

[1] = iv, 3 mg/kg, Group 1: IV 3 mg/kg, Average
[2] = iv, 3 mg/kg, Group 1: IV 3 mg/kg, Subject 1
[3] = iv, 3 mg/kg, Group 1: IV 3 mg/kg, Subject 2
[4] = iv, 3 mg/kg, Group 1: IV 3 mg/kg, Subject 3
[5] = iv, 3 mg/kg, Intravenous - 3 mg/kg, Average
[6] = iv, 3 mg/kg, Intravenous - 3 mg/kg, Subj1
[7] = iv, 3 mg/kg, Intravenous - 3 mg/kg, Subj2
[8] = iv, 3 mg/kg, Intravenous - 3 mg/kg, Subj3
[9] = oral, 7 mg/kg, Group 3: PO Capsule 7 mg/kg, Subject 1
[10] = oral, 7 mg/kg, Group 3: PO Capsule 7 mg/kg, Subject 3
[11] = oral, 7 mg/kg, Group 3: PO Capsule 7 mg/kg, Average
[12] = oral, 7 mg/kg, Group 3: PO Capsule 7 mg/kg, Subject 2

CC(C)(O)c1nc2ccccc2cc1N [I-1]
AUC/Dose (100 mg Capsule, average dose 7.2 mg/kg, Average): 1139 ng·h/mL/mg/kg | AUC/Dose (100 mg Capsule, average dose 7.2 mg/kg, Subj1): 955 ng·h/mL/mg/kg | AUC/Dose (100 mg Capsule, average dose 7.2 mg/kg, Subj2): 809 ng·h/mL/mg/kg | AUC/Dose (100 mg Capsule, average dose 7.2 mg/kg, Subj3): 1653 ng·h/mL/mg/kg | AUC/Dose (Intravenous - 3 mg/kg, Average): 1379 | AUC/Dose (Intravenous - 3 mg/kg, Subj1): 1361 | AUC/Dose (Intravenous - 3 mg/kg, Subj2): 1520 | AUC/Dose (Intravenous - 3 mg/kg, Subj3): 1256 | AUC/Dose (Oral Gavage 0.5% Methylcellulose 10 mg/kg, Average): 1038 ng·h/mL/mg/kg | AUC/Dose (Oral Gavage 0.5% Methylcellulose 10 mg/kg, Subj1): 1121 ng·h/mL/mg/kg | AUC/Dose (Oral Gavage 0.5% Methylcellulose 10 mg/kg, Subj2): 1010 ng·h/mL/mg/kg | AUC/Dose (Oral Gavage 0.5% Methylcellulose 10 mg/kg, Subj3 (dose assigned 7.46 after emesis)): 982 ng·h/mL/mg/kg | concentration at 0.083 h [1]: 5080 ng/mL | concentration at 0.083 h [2]: 4910 ng/mL | concentration at 0.083 h [3]: 4900 ng/mL | concentration at 0.083 h [4]: 5430 ng/mL | concentration at 0.25 h [1]: 2410 ng/mL | concentration at 0.25 h [2]: 2780 ng/mL | concentration at 0.25 h [3]: 2300 ng/mL | concentration at 0.25 h [4]: 2150 ng/mL | concentration at 0.5 h [1]: 1660 ng/mL | concentration at 0.5 h [2]: 1720 ng/mL | concentration at 0.5 h [3]: 1700 ng/mL | concentration at 0.5 h [4]: 1570 ng/mL | concentration at 1 h [1]: 951 ng/mL | concentration at 1 h [2]: 857 ng/mL | concentration at 1 h [3]: 908 ng/mL | concentration at 1 h [4]: 1090 ng/mL | concentration at 2 h [1]: 548 ng/mL | concentration at 2 h [2]: 436 ng/mL | concentration at 2 h [3]: 766 ng/mL | concentration at 2 h [4]: 443 ng/mL | concentration at 4 h [1]: 250 ng/mL | concentration at 4 h [2]: 259 ng/mL | concentration at 4 h [3]: 287 ng/mL | concentration at 4 h [4]: 203 ng/mL | concentration at 8 h [1]: 42.5 ng/mL | concentration at 8 h [2]: 49 ng/mL | concentration at 8 h [3]: 55.4 ng/mL | concentration at 8 h [4]: 23.1 ng/mL | concentration at 12 h [1]: 15.5 ng/mL | concentration at 12 h [2]: 23.9 ng/mL | concentration at 12 h [3]: 17 ng/mL | concentration at 12 h [4]: 5.5 ng/mL | AUC(0-inf) [5]: 4140 ng·h/mL | AUC(0-t) [5]: 4100 ng·h/mL | C0 [5]: 6720 ng/mL | clearance [5]: 12.2 mL/min/kg | half-life [5]: 1.82 h | Vd [5]: 1.39 L/kg | AUC(0-inf) [6]: 4080 ng·h/mL | AUC(0-t) [6]: 4030 ng·h/mL | C0 [6]: 5600 ng/mL | clearance [6]: 12.2 mL/min/kg | half-life [6]: 2.2 h | Vd [6]: 1.51 L/kg | AUC(0-inf) [7]: 4560 ng·h/mL | AUC(0-t) [7]: 4520 ng·h/mL | C0 [7]: 6670 ng/mL | clearance [7]: 11 mL/min/kg | half-life [7]: 1.82 h | Vd [7]: 1.4 L/kg | AUC(0-inf) [8]: 3770 ng·h/mL | AUC(0-t) [8]: 3760 ng·h/mL | C0 [8]: 7890 ng/mL | clearance [8]: 13.3 mL/min/kg | half-life [8]: 1.44 h | Vd [8]: 1.25 L/kg | concentration at 0.25 h [9]: 0 ng/mL | concentration at 0.25 h [10]: 0 ng/mL | concentration at 0.5 h [11]: 97.4 ng/mL | concentration at 0.5 h [9]: 1.1 ng/mL | concentration at 0.5 h [12]: 290 ng/mL | concentration at 0.5 h [10]: 1 ng/mL | concentration at 1 h [11]: 137 ng/mL | concentration at 1 h [9]: 24 ng/mL | concentration at 1 h [12]: 254 ng/mL | concentration at 1 h [10]: 134 ng/mL | concentration at 2 h [11]: 2350 ng/mL | concentration at 2 h [9]: 1740 ng/mL | concentration at 2 h [12]: 1320 ng/mL | concentration at 2 h [10]: 3990 ng/mL | concentration at 4 h [11]: 985 ng/mL
